Results reported in PubChem BioAssay (NCI).
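GI50 = concentration required for 50% inhibition of growth. TGI is the concentration that stops growth completely.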

How the values were obtained:
Assay in all cases: NCI anticancer screen, dose series, 384-well format
COLO 205 colon = test system: COLO 205 colon
OVCAR-8 ovarian = test system: OVCAR-8 ovarian
RXF 393 renal = test system: RXF 393 renal
SN12C renal = test system: SN12C renal
SK-MEL-2 melanoma = test system: SK-MEL-2 melanoma
HT29 colon = test system: HT29 colon
MOLT-4 leukemia = test system: MOLT-4 leukemia
UO-31 renal = test system: UO-31 renal
SW-620 colon = test system: SW-620 colon
MDA-MB-468 breast = test system: MDA-MB-468 breast
NCI/ADR-RES ovarian = test system: NCI/ADR-RES ovarian
U251 glioblastoma = test system: U251 glioblastoma
RPMI-8226 leukemia = test system: RPMI-8226 leukemia
ACHN renal = test system: ACHN renal
CCRF-CEM leukemia = test system: CCRF-CEM leukemia
K-562 leukemia = test system: K-562 leukemia
HCT-15 colon = test system: HCT-15 colon
HOP-92 NSCLC = test system: HOP-92 NSCLC
HL-60(TB) leukemia = test system: HL-60(TB) leukemia
786-0 renal = test system: 786-0 renal
MCF7 breast = test system: MCF7 breast
NCI-H23 lung = test system: NCI-H23 lung
A498 renal = test system: A498 renal
SF-539 CNS = test system: SF-539 CNS
HOP-62 NSCLC = test system: HOP-62 NSCLC
NCI-H226 lung = test system: NCI-H226 lung
SK-OV-3 ovarian = test system: SK-OV-3 ovarian
CAKI-1 renal = test system: CAKI-1 renal
MALME-3M melanoma = test system: MALME-3M melanoma
UACC-257 melanoma = test system: UACC-257 melanoma
SK-MEL-5 melanoma = test system: SK-MEL-5 melanoma
KM12 colon = test system: KM12 colon
OVCAR-4 ovarian = test system: OVCAR-4 ovarian
T-47D breast = test system: T-47D breast
NCI-H322M lung = test system: NCI-H322M lung
NCI-H522 lung = test system: NCI-H522 lung
HCC-2998 colon = test system: HCC-2998 colon
BT-549 breast = test system: BT-549 breast
HCT-116 colon = test system: HCT-116 colon
OVCAR-5 ovarian = test system: OVCAR-5 ovarian
IGROV1 ovarian = test system: IGROV1 ovarian
LOX IMVI melanoma = test system: LOX IMVI melanoma
SF-295 CNS = test system: SF-295 CNS
MDA-MB-231 breast = test system: MDA-MB-231 breast
SK-MEL-28 melanoma = test system: SK-MEL-28 melanoma
UACC-62 melanoma = test system: UACC-62 melanoma
NCI-H460 NSCLC = test system: NCI-H460 NSCLC
DU-145 prostate = test system: DU-145 prostate
TK-10 renal = test system: TK-10 renal
M14 melanoma = test system: M14 melanoma
OVCAR-3 ovarian = test system: OVCAR-3 ovarian
SF-268 CNS = test system: SF-268 CNS
SR leukemia = test system: SR leukemia
PC-3 prostate = test system: PC-3 prostate
SNB-19 CNS = test system: SNB-19 CNS
MDA-MB-435 melanoma = test system: MDA-MB-435 melanoma
A549 NSCLC = test system: A549 NSCLC

With `Nc1ccc(/C=C/C(=O)NCc2cc3cc(-c4ccc(C(=O)N5CCC(F)(F)CC5)cc4)cc(-c4ccc(F)cc4)c3o2)cn1` the GI50 (COLO 205 colon) was 0.0227 µM, the TGI (COLO 205 colon) was 0.0534 µM and the GI50 (OVCAR-8 ovarian) was 0.0168 µM. For the same compound, the TGI (OVCAR-8 ovarian) was 0.0328 µM, the GI50 (RXF 393 renal) was 0.105 µM and the TGI (RXF 393 renal) was 0.255 µM. The GI50 (SN12C renal) was 0.0176 µM, the TGI (SN12C renal) was 0.032 µM and the GI50 (SK-MEL-2 melanoma) was 0.0414 µM. It also gave a TGI (SK-MEL-2 melanoma) of 0.108 µM, a GI50 (HT29 colon) of 0.331 µM and a TGI (HT29 colon) of 0.985 µM. The GI50 (MOLT-4 leukemia) was 0.0219 µM, the TGI (MOLT-4 leukemia) was 0.0392 µM and the GI50 (UO-31 renal) was 0.0523 µM. It also gave a TGI (UO-31 renal) of 0.174 µM, a GI50 (SW-620 colon) of 0.0239 µM and a TGI (SW-620 colon) of 0.0534 µM. For the same compound, the GI50 (MDA-MB-468 breast) was 0.19 µM, the TGI (MDA-MB-468 breast) was 0.384 µM and the GI50 (NCI/ADR-RES ovarian) was 0.307 µM. For the same compound, the TGI (NCI/ADR-RES ovarian) was 1.14 µM, the GI50 (U251 glioblastoma) was 0.0356 µM and the TGI (U251 glioblastoma) was 0.148 µM. The GI50 (RPMI-8226 leukemia) was 0.0587 µM, the TGI (RPMI-8226 leukemia) was 0.191 µM and the GI50 (ACHN renal) was 0.121 µM. It also gave a TGI (ACHN renal) of 0.348 µM, a GI50 (CCRF-CEM leukemia) of 0.0214 µM and a TGI (CCRF-CEM leukemia) of 0.0372 µM. It also gave a GI50 (K-562 leukemia) of 0.0333 µM, a TGI (K-562 leukemia) of 0.175 µM and a GI50 (HCT-15 colon) of 0.25 µM. For the same compound, the TGI (HCT-15 colon) was 0.741 µM, the GI50 (HOP-92 NSCLC) was 0.441 µM and the TGI (HOP-92 NSCLC) was 1.83 µM. It also gave a GI50 (HL-60(TB) leukemia) of 0.0228 µM, a TGI (HL-60(TB) leukemia) of 0.0376 µM and a GI50 ([…]-0 renal) of 0.117 µM. It also gave a TGI (786-0 renal) of 0.249 µM, a GI50 (MCF7 breast) of 0.213 µM and a TGI (MCF7 breast) of 0.485 µM. It also gave a GI50 (NCI-H23 lung) of 0.218 µM, a TGI (NCI-H23 lung) of 0.43 µM and a GI50 (A498 renal) of 2.27 µM. It also gave a TGI (A498 renal) of 33.4 µM, a GI50 (SF-539 CNS) of 0.0155 µM and a TGI (SF-539 CNS) of 0.0303 µM. The GI50 (HOP-62 NSCLC) was 0.0656 µM, the TGI (HOP-62 NSCLC) was 0.242 µM and the GI50 (NCI-H226 lung) was 7.38 µM. It also gave a TGI (NCI-H226 lung) greater than 100 µM, a GI50 (SK-OV-3 ovarian) of 0.0209 µM and a TGI (SK-OV-3 ovarian) of 0.0491 µM. The GI50 (CAKI-1 renal) was 0.12 µM, the TGI (CAKI-1 renal) was 0.282 µM and the GI50 (MALME-3M melanoma) was 0.374 µM. For the same compound, the TGI (MALME-3M melanoma) was 0.916 µM, the GI50 (UACC-257 melanoma) was 0.504 µM and the TGI (UACC-257 melanoma) was 2.91 µM. It also gave a GI50 (SK-MEL-5 melanoma) of 0.174 µM, a TGI (SK-MEL-5 melanoma) of 0.36 µM and a GI50 (KM12 colon) of 0.0586 µM. It also gave a TGI (KM12 colon) of 0.21 µM, a GI50 (OVCAR-4 ovarian) of 0.212 µM and a TGI (OVCAR-4 ovarian) of 0.472 µM. The GI50 (T-47D breast) was 0.0201 µM, the TGI (T-47D breast) was 0.0506 µM and the GI50 (NCI-H322M lung) was 0.0347 µM. The TGI (NCI-H322M lung) was 0.139 µM, the GI50 (NCI-H522 lung) was 0.0181 µM and the TGI (NCI-H522 lung) was 0.0348 µM. The GI50 (HCC-2998 colon) was 0.114 µM, the TGI (HCC-2998 colon) was 0.27 µM and the GI50 (BT-549 breast) was 0.211 µM. The TGI (BT-549 breast) was 0.461 µM, the GI50 (HCT-116 colon) was 0.0206 µM and the TGI (HCT-116 colon) was 0.0407 µM. For the same compound, the GI50 (OVCAR-5 ovarian) was 0.0215 µM, the TGI (OVCAR-5 ovarian) was 0.044 µM and the GI50 (IGROV1 ovarian) was 0.131 µM. For the same compound, the TGI (IGROV1 ovarian) was 0.265 µM, the GI50 (LOX IMVI melanoma) was 0.567 µM and the TGI (LOX IMVI melanoma) was 2.02 µM. For the same compound, the GI50 (SF-295 CNS) was 0.188 µM, the TGI (SF-295 CNS) was 0.368 µM and the GI50 (MDA-MB-231 breast) was 0.549 µM. It also gave a TGI (MDA-MB-231 breast) of 1.95 µM, a GI50 (SK-MEL-28 melanoma) of 0.223 µM and a TGI (SK-MEL-28 melanoma) of 0.41 µM. The GI50 (UACC-62 melanoma) was 0.206 µM, the TGI (UACC-62 melanoma) was 0.427 µM and the GI50 (NCI-H460 NSCLC) was 0.437 µM. For the same compound, the TGI (NCI-H460 NSCLC) was 1.57 µM, the GI50 (DU-145 prostate) was 0.259 µM and the TGI (DU-145 prostate) was 0.641 µM. It also gave a GI50 (TK-10 renal) of 0.21 µM, a TGI (TK-10 renal) of 0.404 µM and a GI50 (M14 melanoma) of 0.328 µM. For the same compound, the TGI (M14 melanoma) was 1.39 µM, the GI50 (OVCAR-3 ovarian) was 0.0539 µM and the TGI (OVCAR-3 ovarian) was 0.217 µM. It also gave a GI50 (SF-268 CNS) of 0.175 µM, a TGI (SF-268 CNS) of 0.325 µM and a GI50 (SR leukemia) of 1.33 µM. It also gave a TGI (SR leukemia) of 2.69 µM, a GI50 (PC-3 prostate) of 0.0481 µM and a TGI (PC-3 prostate) of 0.165 µM. For the same compound, the GI50 (SNB-19 CNS) was 0.028 µM, the TGI (SNB-19 CNS) was 0.082 µM and the GI50 (MDA-MB-435 melanoma) was 0.146 µM. The TGI (MDA-MB-435 melanoma) was 0.283 µM, the GI50 (A549 NSCLC) was 0.252 µM and the TGI (A549 NSCLC) was 0.699 µM.
